Data: ChEMBL document CHEMBL1201862, “PubChem BioAssay data set” (2004)
Calls of active or inactive are those of the source.

Key:
[1] = biological target: Heat shock protein HSP 90-alpha (Homo sapiens, UniProt P07900); format: functional, organism-based
[2] = Fluorescence-based cell-based high throughput dose response assay for inhibitors of the interaction of nucleotide-binding oligomerization domain containing 2 (NOD2) and the receptor-interacting serine-threonine kinase 2 (RIPK2).; format: functional; conditions: Homo sapiens
Beta Lactamase = Beta Lactamase (Pseudomonas aeruginosa, UniProt Q932Y6); assay: beta-lactamase reporter inhibitor potency, dose response, artefact control for NOD2-RIPK2 interaction inhibitor project, BLA reporter cells, FRET fluorescence (AID 651552); format: functional, cell-based
[3] = HeLa cell cytotoxicity, dose response, cytotoxicity control for MgcRacGAP inhibitor project (AID 624300); format: functional
[4] = biological target: T1, Rac GTPase-activating protein 1 (Homo sapiens, UniProt Q9H0H5); assay: MgcRacGAP GTPase-activating activity inhibitors, confirmation, biochemical, ADP Hunter fluorescence, primary and confirmatory (AID 624330); format: functional
T1 sequence (Q9H0H5 whole entry): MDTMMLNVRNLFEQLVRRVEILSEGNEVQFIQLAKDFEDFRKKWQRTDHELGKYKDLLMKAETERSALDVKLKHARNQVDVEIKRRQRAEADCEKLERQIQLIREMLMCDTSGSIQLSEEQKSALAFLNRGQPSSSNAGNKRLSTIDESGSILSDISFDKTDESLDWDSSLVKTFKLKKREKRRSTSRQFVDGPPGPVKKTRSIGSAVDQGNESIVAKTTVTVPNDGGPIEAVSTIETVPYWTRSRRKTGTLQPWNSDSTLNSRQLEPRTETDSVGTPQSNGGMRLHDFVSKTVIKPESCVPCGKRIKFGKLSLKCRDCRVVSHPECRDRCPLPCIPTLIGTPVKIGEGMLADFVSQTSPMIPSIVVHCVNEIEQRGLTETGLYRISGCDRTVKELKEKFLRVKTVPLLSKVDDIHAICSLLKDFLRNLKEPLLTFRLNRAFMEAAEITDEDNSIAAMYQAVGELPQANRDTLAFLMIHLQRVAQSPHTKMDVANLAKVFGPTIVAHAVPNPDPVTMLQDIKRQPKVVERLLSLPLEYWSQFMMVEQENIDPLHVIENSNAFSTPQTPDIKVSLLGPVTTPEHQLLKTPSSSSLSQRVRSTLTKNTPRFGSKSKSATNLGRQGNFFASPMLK

Paired box protein Pax-8 = Paired box protein Pax-8 (Homo sapiens, UniProt Q06710); assay: inhibitors of PAX8-driven TPO luciferase reporter, dose response, RMG-I cells, cherry-pick (AID 687027); format: functional, cell-based;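 further: luciferase reporter driven by Pax8 target thyroperoxidase promoter measured by SteadyGlo luminescence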
[5] = biological target: T2, Methionyl-tRNA synthetase, putative (Trypanosoma brucei brucei, UniProt Q38C91); format: functional, Trypanosoma brucei brucei strain 927/4 GUTat10.1
[6] = Counterscreen for inhibitors of Trypanosoma brucei methionyl tRNA synthetase (MetRS): Luminescence-based cell-based high throughput dose response assay to identify compounds that are cytotoxic to Jurkat human T lymphocyte cells.; format: functional
[7] = biological target: T2, Methionyl-tRNA synthetase, putative; format: functional, Trypanosoma brucei brucei strain 927/4 GUTat10.1; remark: listed apart in the source
[8] = miR-122 activators in hepatoma reporter cells, dose response, cell-based, Huh7 psiCHECK-miR122, Renilla luciferase, cherry-picked (AID 651956); format: functional;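 further: huh7 hepatoma cells stably carrying a psiCHECK-2 miR-122 sensor plasmid; renilla luciferase signal reporting endogenous miR-122 activity after 48 h compound exposure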
Beta-lactamase [9] = biological target: Beta-lactamase (Salmonella choleraesuis (strain SC-B67), UniProt Q5J463); assay: Epi-absorbance-based counterscreen for selective VIM-2 inhibitors: dose response biochemical high throughput screening assay to identify inhibitors of TEM-1 serine-beta-lactamase.
Beta-lactamase [10] = biological target: T3, Beta-lactamase (Pseudomonas aeruginosa, UniProt Q79MP6); assay: IMP-1 metallo-beta-lactamase inhibitors, dose response, selectivity assay for VIM-2 inhibitor project, biochemical, epi-absorbance (AID 1920)
Beta-lactamase [11] = biological target: T3, Beta-lactamase; assay: […] counterscreen for selective VIM-2 inhibitors: dose response biochemical high throughput screening assay to identify inhibitors of IMP-1 metallo-beta-lactamase.

T2 sequence (Q38C91 whole entry): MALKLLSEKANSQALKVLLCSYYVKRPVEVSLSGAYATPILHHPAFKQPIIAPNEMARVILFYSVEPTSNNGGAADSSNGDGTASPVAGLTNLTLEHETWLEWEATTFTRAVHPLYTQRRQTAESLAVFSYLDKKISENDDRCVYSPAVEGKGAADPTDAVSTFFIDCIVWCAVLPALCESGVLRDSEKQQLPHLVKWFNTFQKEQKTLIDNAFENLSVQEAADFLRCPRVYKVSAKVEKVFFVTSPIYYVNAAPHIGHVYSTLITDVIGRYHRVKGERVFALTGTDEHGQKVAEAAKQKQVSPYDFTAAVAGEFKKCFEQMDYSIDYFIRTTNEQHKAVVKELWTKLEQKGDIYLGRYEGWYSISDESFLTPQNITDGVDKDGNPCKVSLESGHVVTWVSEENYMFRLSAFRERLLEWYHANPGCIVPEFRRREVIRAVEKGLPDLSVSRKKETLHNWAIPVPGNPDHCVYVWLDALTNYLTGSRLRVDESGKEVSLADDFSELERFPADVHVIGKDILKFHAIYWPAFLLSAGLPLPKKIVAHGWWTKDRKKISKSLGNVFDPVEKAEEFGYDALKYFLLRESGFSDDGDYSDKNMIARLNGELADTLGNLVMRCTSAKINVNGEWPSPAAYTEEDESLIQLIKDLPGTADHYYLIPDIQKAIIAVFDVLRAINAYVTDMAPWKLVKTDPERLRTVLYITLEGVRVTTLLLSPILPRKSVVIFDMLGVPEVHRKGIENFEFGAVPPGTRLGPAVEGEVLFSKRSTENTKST
T3 sequence (Q79MP6 whole entry): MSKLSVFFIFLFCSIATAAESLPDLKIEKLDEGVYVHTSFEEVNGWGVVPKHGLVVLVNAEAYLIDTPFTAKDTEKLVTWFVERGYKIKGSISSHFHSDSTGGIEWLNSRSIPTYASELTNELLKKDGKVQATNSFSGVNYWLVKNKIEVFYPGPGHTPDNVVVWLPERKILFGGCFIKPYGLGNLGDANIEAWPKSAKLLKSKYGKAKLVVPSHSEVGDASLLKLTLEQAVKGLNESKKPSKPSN
Chain of Beta-lactamase (Salmonella choleraesuis (strain SC-B67), UniProt Q5J463) (Q5J463 whole entry): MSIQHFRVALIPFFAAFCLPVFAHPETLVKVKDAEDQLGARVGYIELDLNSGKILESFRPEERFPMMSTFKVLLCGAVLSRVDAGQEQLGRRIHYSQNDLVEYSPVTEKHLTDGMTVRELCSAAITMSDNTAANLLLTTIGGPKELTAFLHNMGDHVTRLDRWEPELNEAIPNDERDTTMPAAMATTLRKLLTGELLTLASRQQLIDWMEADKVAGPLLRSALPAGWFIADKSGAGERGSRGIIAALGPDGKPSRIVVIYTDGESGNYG
Chain of Beta Lactamase (Q932Y6 whole entry): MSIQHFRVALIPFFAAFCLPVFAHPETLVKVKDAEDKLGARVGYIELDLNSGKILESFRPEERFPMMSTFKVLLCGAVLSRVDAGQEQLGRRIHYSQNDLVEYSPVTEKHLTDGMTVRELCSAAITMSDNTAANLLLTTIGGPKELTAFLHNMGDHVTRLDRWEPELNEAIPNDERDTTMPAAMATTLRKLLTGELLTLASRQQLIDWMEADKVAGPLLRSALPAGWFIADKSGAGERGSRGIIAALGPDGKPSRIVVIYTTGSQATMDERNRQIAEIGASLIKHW
Chain of Paired box protein Pax-8 (Q06710 whole entry): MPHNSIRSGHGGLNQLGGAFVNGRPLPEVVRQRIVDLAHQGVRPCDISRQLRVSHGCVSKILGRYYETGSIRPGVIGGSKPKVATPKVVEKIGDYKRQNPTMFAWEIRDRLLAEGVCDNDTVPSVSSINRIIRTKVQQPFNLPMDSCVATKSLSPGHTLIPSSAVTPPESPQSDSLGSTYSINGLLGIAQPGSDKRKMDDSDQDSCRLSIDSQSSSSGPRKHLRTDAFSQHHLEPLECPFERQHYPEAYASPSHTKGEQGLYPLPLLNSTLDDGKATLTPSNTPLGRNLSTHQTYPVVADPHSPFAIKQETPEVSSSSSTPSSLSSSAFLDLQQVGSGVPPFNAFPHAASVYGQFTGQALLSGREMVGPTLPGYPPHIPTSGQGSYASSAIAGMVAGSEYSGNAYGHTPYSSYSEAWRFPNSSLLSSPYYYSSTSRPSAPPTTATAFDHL

## O=C1/C(=C\c2ccc(Cl)c(Cl)c2)CN(C(=O)CCN2CCOCC2)C/C1=C/c1ccc(Cl)c(Cl)c1
[1]
  AC50: 2.98 µM (active)
[2]
  IC50: 0.614 µM (active)
Beta Lactamase
  IC50: 31.4 µM (inactive)
[3]
  CC50: 16.9 µM (active)
[4]
  IC50: 121 µM (active)
Paired box protein Pax-8
  AC50: 2.65 µM (active)

## Cc1cccc(NC(=O)CCNC(=O)c2ccc(Br)cc2)c1
[5]
  IC50: 5.8 µM (active)
[6]
  IC50: 83.3 µM (inactive)
[7]
  IC50: 12.9 µM (inactive)

## CC(C)OCCCNC(=O)c1ccncc1
[8]
  AC50: 37.6 µM (active)

## NC(=O)SCC(=O)Nc1ccccc1C(=O)O
Beta-lactamase [9]
  IC50: > 59.6 µM (inactive)
Beta-lactamase [10]
  IC50: > 59.6 µM (inactive)
Beta-lactamase [11]
  IC50: 24.1 µM (inactive)
